Source: patent publication US11760733B2, “Small molecule regulators of mitochondrial fusion and methods of use thereof” (Washington University, priority 2017, dated 2023)
Entries after “also recorded” stand apart in the source; their conditions may differ.

What was measured:
Mfn2 HR2 target peptide = target: T1, Mfn2 HR2 target peptide (Homo sapiens, UniProt O95140); assay: HR1 peptide-HR2 target binding assay
T1 construct: Gly linker (GGGG after the His tag)
T1 sequence (O95140 with tags, fused parts or gaps limits assumed): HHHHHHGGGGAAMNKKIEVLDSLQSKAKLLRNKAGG
Text: The Mfn-derived fusion-promoting and -inhibiting mini-peptides (simulated to obtain the chemical Mfn agonists in TABLE 1 and TABLE 2) were modified from amino acid heptad repeats (HR) in the HR1 domain and predicted to interact with their counterparts in the carboxyl terminus HR2 domain within the Mfn stalk region (see e.g., FIG. 1, top panel). A high-throughput binding assay was designed whereby the target HR2 peptide sequences, modified to include amino terminal 6×His tags and Gly linkers, were bonded to Ni-chelate resin (20 μg/ml) and used as immobilized “receptor” for amino-FITC-tagged Mfn2 374-384 (agonist ligand) in which the Ser analogous to Ser378 was replaced with Asp to confer the negative charge essential for activity. For antagonist studies the ligand was amino-FITC-tagged Mfn2 406-418. The FITC peptide ligands are suspended at 1 mM in 30% DMSO, 70% water (to minimize spontaneous aggregation) and diluted into binding buffer (de-ionized water) to a final concentration of 25 μM in the presence or absence of competing compound. Dose-dependent loss of resin-bound FITC signal (485 nm excitation/538 nm emission) measured in a 96 well spectrofluorometer represents binding of compound to its HR2 target (see e.g., FIG. 10, FIG. 11). Either the ligand peptide or the receptor peptide can be modified to represent mutations, variations, or posttranslational modifications of Mfn2. […]
Target HR2 peptide sequence modified to include amino terminal 6×His tags and Gly linkers, were bonded to Ni-NTA resin (4.4 μg/ml) (Quiagen) and used as immobilized “receptor” for amino-FITC-tagged Mfn2 374-384 (ligand) in which the Ser analogous to Ser378 was replaced with Asp to confer the negative charge essential for activity. […] Resin-bound FITC signal (485 nm excitation/538 nm emission) measured in a 96 well spectrofluorometer (Spectramax M5e, Molecular Devices) represented binding to HR2 target. Competition binding isotherms were plotted and IC50 values calculated using Prism 7 (Graph Pad).

[1] = tested on: MFN2 T105M sciatic nerves; assay: Sciatic nerve axonal mitochondrial motility, agonist applied to nerve; details: MFN2 T105M mouse sciatic nerve
Protocol: Sciatic nerves of 12-18 week old male or female MFN2 T105M mice were removed en bloc with the lumbar spine and axotomy at the tibial nerve, stained with TMEM ([…]) for 30 minutes in prewarmed Neurobasal Medium without phenol red (Thermo Fisher Scientific) at room temperature, washed, and maintained on the stage of a Nikon A1Rsi Confocal Microscope at 37 degrees C. for time-lapse confocal studies. Images were acquired with a 40× oil immersion objective at 1 frame every 5 or 10 seconds for sequential 10 minute periods. Mitofusin agonist chimera B-A/I was added after the first 10 minute imaging period (final concentrations of […]) and nerve axons imaged for another 40 minutes. Because there was no difference in mitochondrial trafficking or response to mitofusin agonist between male and female mice, the data were combined.

[2] = tested on: MFN2 Asp378 and Ala378 mutants; assay: Mitochondrial fusion in cells expressing MFN2 Ser378 mutants; assay type: cell-based, human; details: phosphomimic Asp378 vs nonphosphorylatable Ala378
Text: On the basis of fluorescence resonance energy transfer (FRET) analysis of MFN2 labeled at the N and C termini, mitofusin agonists promoted an open MFN2 conformation favoring mitochondrial fusion, with a rank order paralleling that for HR2 binding and mitochondrial fusion (see e.g., FIG. 11G; compare to FIG. 11B and FIG. 11C), supporting allosteric activation.
Human Mfn2 Ser378 was mutated to Ala or Asp by site-directed mutagenesis using the QuikChange Lightning kit (Agilent Technologies Inc.) and primers: […]
Mfn2 and its mutants were sub-cloned into adenoviral vector Type 5 (dE1/E3) with RGD-fiber modification (Vector Biolabs) using BamHI/XhoI. All constructs were verified by Sanger DNA sequencing. Adeno-viral PINK1 was purchased from Vector Biolabs.

[3] = tested on: cultured neurons expressing MFN2 T105M or MFN2 R94Q; assay: Cultured mouse neurons expressing CMT2A MFN2 mutants; assay type: cell-based
Protocol: Neonatal mouse hippocampal neurons were cultured from brains of one day old Mfn2 T105M or non-transgenic sibling mouse pups as described. After 10 days of differentiating culture neurons were infected with Adeno-Cre to induce Mfn2 T105M expression or Adeno-βgal as a control (50 MOI). After an additional 72 hours mitofusin agonists or DMSO vehicle were added. For static confocal imaging neuronal mitochondria were labeled with adenoviral-expressed mitoGFP plus TMRE. Autophagy was measured by LC3 aggregation in neurons infected with adenoviral LC3-GFP. For time-lapse studies of mitochondrial trafficking bi-cistronic Adeno-Cre/GFP marked Cre expression and mitochondria were labeled with adeno-mitoDsRed. Confocal live cell images were acquired with a time-lapse of 1 frame every 90 seconds for 1 hour.

competition for minipeptide binding at MFN2 HR2 site (Mfn2 HR2 target peptide): competed for minipeptide binding
Structure (SMILES): CC1CCCCC1NC(=O)NCCSc1nnc(C2CC2)n1-c1ccccc1 (racemic) [B-A/I, 1-(2-((5-cyclopropyl-4-phenyl-4H-1,2,4-triazol-3-yl)thio)ethyl)-3-(2-methylcyclohexyl)urea]
sciatic nerve axonal mitochondrial motility [1]: rapidly reverses mitochondrial dysmotility; also recorded: restored mitochondrial motility to within normal levels
selectivity of fusogenic effect for MFN2 Ser378 mutants [2]: non-selective
mitochondrial fragmentation/dysmorphology, hypopolarization, autophagy in neurons ([3]; MFN2 R94Q or T105M): concomitantly corrected
mitochondrial clumping and motility in neurons ([3]; MFN2 T105M): restored mitochondrial motility
